Results on 7 compounds are retold here after US20090093454A1, “Chemical Compounds” (priority 2005, published 2009).

One assay deals with T-tropic HIV. To be noted: patients that are dual tropic or with only the T-tropic form of the virus; cited from earlier work.
For the next assay, the system named is HIV-1. Kind of assay: HIV infectivity assay (Table 2, strain not given). Format: cell-based. To be noted: Human immunodeficiency virus 1, read-out: Activity Level. The procedure, abridged:
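HOS cells expressing hCXCR4/hCCR5/hCD4 with HIV-LTR-luciferase, pre-treated 1 h with compound at 37 °C, then infected with HIV-1 Ba-L or IIIB (~2 million RLU/well) for 96 h. Infection read by Steady-Glo luciferase; cytotoxicity in uninfected cultures by CellTiter-Glo.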

For `c1cc(CN2CCCNCCNCCCNCC2)ccc1CN1CCCNCCNCCCNCC1` [AMD-3100], the “T-tropic HIV viral load” value in the assay with T-tropic HIV is recorded as “significantly reduce”.

Regarding `NC1CN(c2cccc3nc(CN4CCC[C@H]5CCc6cccnc6[C@H]54)cn23)C1` [Example 97, 1-{2-[(4aR,10bS)-3,4,4a,5,6,10b-hexahydro-1,10-phenanthrolin-1(2H)-ylmethyl]imidazo[1,2-a]pyridin-5-yl}-3-azetidinamine], in the assay on HIV-1, the IC50 is below 100 nM.

Take `NCCCCCn1c(CN2CCC[C@@H]3CCc4cccnc4[C@H]32)nc2ccccc21` (relative stereo) [Example 35, (trans)-5-[2-(3,4,4a,5,6,10b-hexahydro-1,10-phenanthrolin-1(2H)-ylmethyl)-1H-benzimidazol-1-yl]-1-pentanamine]: the IC50 in the assay with HIV-1 is 100 to 500 nM.

In the case of `CN1CCN(c2cccc3nc(CN4CCC[C@H]5CCc6cccnc6[C@H]54)c(CN4CCCCC4)n23)CC1` [Example 57, (4aR,10bS)-1-{[5-(4-methyl-1-piperazinyl)-3-(1-piperidinylmethyl)imidazo[1,2-a]pyridin-2-yl]methyl}-1,2,3,4,4a,5,6,10b-octahydro-1,10-phenanthroline], the IC50 in the assay on HIV-1 is below 100 nM.

Turning to `c1cnc2c(c1)CC[C@@H]1CCCN(Cc3nc4ccccc4n3CCCN3CCOCC3)[C@H]21` (racemic) [Example 44, (cis) 1-({1-[3-(4-morpholinyl)propyl]-1H-benzimidazol-2-yl}methyl)-1,2,3,4,4a,5,6,10b-octahydro-1,10-phenanthroline], the IC50 in the assay on HIV-1 fell in the range of 100 to 500 nM.

As to `CC(C)N1CCC[C@H](Cn2c(CN3CCC[C@H]4CCc5cccnc5[C@H]43)nc3ccccc32)C1` [Example 65, (4aR,10bS)-1-[(1-{[(3S)-1-(1-methylethyl)-3-piperidinyl]methyl}-1H-benzimidazol-2-yl)methyl]-1,2,3,4,4a,5,6,10b-octahydro-1,10-phenanthroline], in the assay with HIV-1, the IC50 is below 100 nM.

In the case of `NCCN1CCN(c2cccc3nc(CN4CCC[C@H]5CCc6cccnc6[C@H]54)cn23)CC1` [Example 92, [2-(4-{2-[(4aR,10bS)-3,4,4a,5,6,10b-hexahydro-1,10-Phenanthrolin-1(2H)-ylmethyl]imidazo[1,2-a]pyridin-5-yl}-1-piperazinyl)ethyl]amine], the IC50 in the assay with HIV-1 was below 100 nM.
